Experimental data: publication PMC8655237 (Journal of Advanced Research, 2021)

What was measured:
PC-3 [1] = experiment: NRU antiproliferative assay; format: cell-based; conditions: Homo sapiens, PC-3, 24 h, read-out: IC50 (NRU)
A431 = experiment: NRU antiproliferative assay; format: cell-based; conditions: Homo sapiens, A-431, 24 h, read-out: IC50 (NRU)
PC-3 [2] = experiment: SRB antiproliferative assay; format: cell-based; conditions: Homo sapiens, PC-3, 24 h, read-out: IC50 (SRB)
COX-2 = target: T1, COX-2 (Homo sapiens, UniProt P35354); experiment: COX-2 assay, cell-free; format: biochemical
T1 sequence (P35354 18-604): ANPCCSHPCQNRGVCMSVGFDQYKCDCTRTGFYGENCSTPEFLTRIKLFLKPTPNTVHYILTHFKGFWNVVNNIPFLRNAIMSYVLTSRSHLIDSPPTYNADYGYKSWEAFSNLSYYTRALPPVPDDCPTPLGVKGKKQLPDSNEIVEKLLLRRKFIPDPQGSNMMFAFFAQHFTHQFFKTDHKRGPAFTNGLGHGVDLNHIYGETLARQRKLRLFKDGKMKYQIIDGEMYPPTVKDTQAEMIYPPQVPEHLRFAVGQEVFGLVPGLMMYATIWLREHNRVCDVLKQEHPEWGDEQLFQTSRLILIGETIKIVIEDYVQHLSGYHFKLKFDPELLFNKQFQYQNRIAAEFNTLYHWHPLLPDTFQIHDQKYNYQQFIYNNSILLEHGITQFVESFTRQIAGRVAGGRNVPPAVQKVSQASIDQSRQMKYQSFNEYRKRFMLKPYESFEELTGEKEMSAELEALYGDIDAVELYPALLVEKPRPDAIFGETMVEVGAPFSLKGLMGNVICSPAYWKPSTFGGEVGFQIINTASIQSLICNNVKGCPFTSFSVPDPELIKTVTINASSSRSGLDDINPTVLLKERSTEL

[3] = test system: Ornithine decarboxylase (ODC); experiment: ODC assay, cell-free; format: biochemical; conditions: read-out: IC50 ODC; cell free (In vitro)
[4] = target: T2, Ornithine decarboxylase (ODC) (Homo sapiens, UniProt P11926); experiment: ODC assay, cell-based; conditions: for IC50: IC50 ODC, cell based
T2 sequence (P11926 1-461): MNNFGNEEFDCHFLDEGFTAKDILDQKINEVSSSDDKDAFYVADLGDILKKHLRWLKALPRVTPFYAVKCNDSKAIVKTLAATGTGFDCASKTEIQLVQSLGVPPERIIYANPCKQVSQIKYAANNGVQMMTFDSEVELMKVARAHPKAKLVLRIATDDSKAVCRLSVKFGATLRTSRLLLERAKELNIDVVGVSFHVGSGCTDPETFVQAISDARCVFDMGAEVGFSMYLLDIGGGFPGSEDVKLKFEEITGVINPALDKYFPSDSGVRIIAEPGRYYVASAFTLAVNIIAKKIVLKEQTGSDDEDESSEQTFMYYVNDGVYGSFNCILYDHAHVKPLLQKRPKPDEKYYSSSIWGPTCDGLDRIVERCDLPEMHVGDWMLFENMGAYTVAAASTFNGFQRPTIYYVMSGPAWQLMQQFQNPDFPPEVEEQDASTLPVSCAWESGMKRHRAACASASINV

hyaluronidase (HYAL) = experiment: Hyaluronidase assay, cell-free; format: biochemical; conditions: cell-free system
COX-2 mRNA = experiment: Real-time qPCR expression analysis; format: cell-based, human; conditions: GAPDH internal control
LOX-5 mRNA = experiment: Real-time qPCR expression analysis; format: cell-based, human; conditions: GAPDH internal control
FaDu = experiment: Cell cycle analysis by flow cytometry; format: cell-based, human; conditions: 24 h
K562 = experiment: Cell cycle analysis by flow cytometry; format: cell-based, human; conditions: K562, 24 h
A549 = experiment: Cell cycle analysis by flow cytometry; format: cell-based, human; conditions: A549, 24 h
HDAC-6 = HDAC-6 quantification by ELISA in A431 cells; format: cell-based, human; conditions: A431, 100 µM, 24 h
HEK-293 = experiment: Cytotoxicity to normal cell line; format: cell-based, human; conditions: higher tested concentration (100 µM)
Cathepsin D (CATD) = Cathepsin D (CATD) (Homo sapiens, UniProt P07339); experiment: Cathepsin D assay, cell-based; conditions: IC50 CAT D
Cathepsin D (CATD), sequence (P07339 65-412): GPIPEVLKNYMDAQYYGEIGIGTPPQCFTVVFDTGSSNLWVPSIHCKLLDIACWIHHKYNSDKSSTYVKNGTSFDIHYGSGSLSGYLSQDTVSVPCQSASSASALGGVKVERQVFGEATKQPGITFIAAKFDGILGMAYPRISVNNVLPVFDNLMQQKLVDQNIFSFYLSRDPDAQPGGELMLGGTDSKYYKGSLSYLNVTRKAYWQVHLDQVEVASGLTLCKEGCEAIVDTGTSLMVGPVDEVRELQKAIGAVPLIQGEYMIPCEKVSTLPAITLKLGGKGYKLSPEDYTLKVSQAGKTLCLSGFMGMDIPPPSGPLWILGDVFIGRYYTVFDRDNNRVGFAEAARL

`CC(C)[C@@H]1CC[C@@H](C)C[C@@H]1O` [neomenthol, (+)-Neomenthol] was tested. Which IC50 (PC-3 [1]) did it give?
The IC50 was 84.6 ± 1.81 µM.

And the IC50 (A431)?
The IC50 was 18.5 ± 3.66 µM.

And the IC50 (PC-3 [2])?
The IC50 was 16.4 ± 3.87 µM.

What about the IC50 (COX-2) of the same compound?
Its IC50 is 81.01 ± 0.59 µM.

What about the IC50 [3] of the same compound?
The IC50 was 20.2 ± 1.09 µM.

What about the “percent inhibition of ODC” value ([4]; A549, PC-3, A431, and FaDu cell lines) of the same compound?
The value was “below 50%”.

And the IC50 ([4]; K562)?
Its IC50 is 29.6 ± 2.54 µM.

And the IC50 ([4]; MDA-MB-231)?
The IC50 was 57.2 ± 2.84 µM.

What about the “inhibition of hyaluronidase enzyme activity” value (hyaluronidase (HYAL)) of the same compound?
The value was 24.9 ± 4.31%.

And the “COX-2 mRNA expression level” value (COX-2 mRNA; A431, with respect to control)?
The value was 1.34 fold change.

And the “COX-2 mRNA expression level” value (COX-2 mRNA; A549, with respect to control)?
Its value is 1.09 fold change.

What about the “COX-2 mRNA expression level” value (COX-2 mRNA; FaDu, with respect to control) of the same compound?
Its value is 1.38 fold change.

What about the “COX-2 mRNA expression level” value (COX-2 mRNA; MDA-MB-231, with respect to control) of the same compound?
Its value is 1.16 fold change.

And the “COX-2 mRNA expression level” value (COX-2 mRNA; PC-3, with respect to control)?
Its value is 1.19 fold change.

What about the “LOX-5 mRNA expression level” value (LOX-5 mRNA; A431, with respect to control) of the same compound?
Its value is 1.25 fold change.

What about the “LOX-5 mRNA expression level” value (LOX-5 mRNA; FaDu, with respect to control) of the same compound?
Its value is 1.26 fold change.

And the “LOX-5 mRNA expression level” value (LOX-5 mRNA; K562, with respect to control)?
Its value is 1.10 fold change.

What about the “cell cycle phase arrested” value (FaDu) of the same compound?
The value was “G2/M phase”.

And the “cell cycle phase arrested” value (K562)?
The value was “arrest of the G0/G1 phase”.

What about the “cell cycle phase arrested” value (A549) of the same compound?
The value was “G2/M phase”.

What about the “HDAC-6 level (ng/mg of protein)” value (HDAC-6) of the same compound?
The value was 0.104 ± 0.001 ng/mg.

And the “cytotoxicity to HEK-293” value (HEK-293)?
The value was “non-cytotoxic”.

What about the IC50 (Cathepsin D (CATD); A549) of the same compound?
Its IC50 is 62 ± 2.08 µM.

And the IC50 (Cathepsin D (CATD); FaDu)?
Its IC50 is 74.62 ± 0.21 µM.

What about the IC50 (Cathepsin D (CATD); K562) of the same compound?
The IC50 was 57.5 ± 14 µM.
